# From patent EP0399653B1, “Anticonvulsant triazolo[4,5-c]pyridine derivatives” (THE WELLCOME FOUNDATION LIMITED, priority 1989, dated 1990)
# Counter-ions that a name gives are not always drawn. Like-named read-outs stand apart in the source and are kept apart here.
# Test: standard maximal electroshock test (MES), anticonvulsant activity
# Format: in vivo
# Conditions: tested as HCl salt
# Protocol: The anticonvulsant activity of certain compounds of the present invention were determined by a standard maximal electroshock test (MES); that described by L.A.Woodbury and V.D.Davenport, Arch. Int.Pharmacodyn, 1952 92 97.
# [1] = ip, I.P administration, read-out: ED50.I.P
# [2] = po, P.O administration, read-out: ED50.P.O
Structure (SMILES),ED50 [1] [mg/kg],ED50 [2] [mg/kg]
"CNc1nccc2c1nnn2Cc1ccccc1F [Example 1, 1-(2-fluorobenzyl)-4-(methylamino)-1H-1,2,3-triazolo[4,5-c]pyridine]",4.5,4.4
"Fc1ccccc1Cn1nnc2c(NC3CC3)nccc21 [Example 2, 4-(cyclopropylamino)-1-(2-fluorobenzyl)-1H-1,2,3-triazolo [4,5-c] pyridine]",4.8,6.3
"CCNc1nccc2c1nnn2Cc1ccccc1F [Example 3, 4-(ethylamino)-1-(2-fluorobenzyl)-1H-1,2,3-triazolo[4,5-c] pyridine]",8.3,10.3
"CN(C)c1nccc2c1nnn2Cc1ccccc1F [Example 4, 4-(dimethylamino)-1-(2-fluorobenzyl)-1H-1,2,3-triazolo [4,5-c]pyridine]",6.3,6.6
"CNc1nccc2c1nnn2Cc1c(F)cccc1F [Example 5, 1-(2,6-difluorobenzyl)-4-(methylamino)-1H-1,2,3-triazolo [4,5-c] pyridine]",7.8,5.3
"Nc1nccc2c1nnn2Cc1c(F)cccc1F [Example 6, 4-amino-1-(2,6,-difluorobenzyl)-1H-1,2,3-triazolo [4,5-c]pyridine hydrochloride]",6.3,3.7
"CNc1nccc2c1nnn2Cc1cc(F)ccc1F [Example 7, 1-(2,5-difluorobenzyl)-4-(methylamino)-1H-1,2,3-triazolo [4,5-c]pyridine]",5,4.3
"CNc1nccc2c1nnn2Cc1ccccc1 [Example 8, 1-benzyl-4-(methylamino)-1H-1,2,3-triazolo[4.5-c]pyridine]",7.8,8.9
"Fc1cccc(F)c1Cn1nnc2c(NC3CC3)nccc21 [Example 10, 4-(cyclopropylamino)-1-(2,6-difluorobenzyl)-1H-1,2,3-triazolo[4,5-c]pyridine]",4.1,8.1
